Our source for the IC50 values is patent US8710043B2, “TRPM8 antagonists and their use in treatments” (Amgen Inc., priority 2011, dated 2014).

The structures appear in SMILES notation.

The test concerns the target T1, human TRPM8 (Homo sapiens, UniProt Q7Z2W7).
T1 construct: expressed in transfected cells; host or cells: Chinese hamster ovary (CHO) cells, T-REx tetracycline-inducible system, co-transfected with aequorin
In words: Luminescence readout assay for measuring intracellular calcium, icilin activation. As to conditions: CHO cells expressing human TRPM8, aequorin luminescence, 1 μM icilin activation; read-out: hTRPM8 IC50. It counts as cell-based. In a few lines:
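The read-out was luminescence reporting intracellular calcium, recorded by a CCD-based luminometer. Compounds were preincubated for 2.5 min before agonist challenge with 1 μM icilin. Human TRPM8 was expressed in a stable T-REx CHO line, induced with 0.5 μg/mL tetracycline the day before.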

T1 sequence (Q7Z2W7 whole entry): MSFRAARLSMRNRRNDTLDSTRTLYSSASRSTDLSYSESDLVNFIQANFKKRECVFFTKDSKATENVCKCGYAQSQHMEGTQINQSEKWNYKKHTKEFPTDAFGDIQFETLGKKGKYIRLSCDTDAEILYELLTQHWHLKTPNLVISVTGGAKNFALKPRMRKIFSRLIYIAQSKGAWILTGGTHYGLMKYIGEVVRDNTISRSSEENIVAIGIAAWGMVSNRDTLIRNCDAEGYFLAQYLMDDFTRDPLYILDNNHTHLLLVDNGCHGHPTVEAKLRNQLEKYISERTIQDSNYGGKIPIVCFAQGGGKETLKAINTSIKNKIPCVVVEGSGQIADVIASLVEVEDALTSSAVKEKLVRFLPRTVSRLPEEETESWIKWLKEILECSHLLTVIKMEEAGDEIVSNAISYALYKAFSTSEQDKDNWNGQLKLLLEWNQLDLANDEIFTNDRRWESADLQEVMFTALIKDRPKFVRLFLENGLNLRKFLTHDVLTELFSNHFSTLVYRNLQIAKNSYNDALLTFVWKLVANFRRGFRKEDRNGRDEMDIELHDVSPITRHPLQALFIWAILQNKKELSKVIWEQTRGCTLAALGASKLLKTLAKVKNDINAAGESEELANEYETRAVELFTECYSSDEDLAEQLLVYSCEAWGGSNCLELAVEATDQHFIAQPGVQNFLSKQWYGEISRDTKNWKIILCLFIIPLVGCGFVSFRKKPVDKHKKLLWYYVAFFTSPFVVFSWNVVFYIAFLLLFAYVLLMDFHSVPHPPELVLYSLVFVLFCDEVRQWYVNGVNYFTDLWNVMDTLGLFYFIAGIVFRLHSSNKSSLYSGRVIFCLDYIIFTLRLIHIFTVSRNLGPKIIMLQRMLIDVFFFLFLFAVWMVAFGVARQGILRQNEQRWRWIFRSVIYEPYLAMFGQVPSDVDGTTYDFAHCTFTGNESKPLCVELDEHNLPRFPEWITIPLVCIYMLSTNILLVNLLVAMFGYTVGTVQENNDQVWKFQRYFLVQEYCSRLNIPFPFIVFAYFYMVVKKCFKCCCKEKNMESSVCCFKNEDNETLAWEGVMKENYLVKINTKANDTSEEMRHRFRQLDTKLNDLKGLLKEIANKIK

For the compound `Cn1cc(C(=O)N[C@@H](c2ccc(C(F)(F)F)cc2)c2ncccc2C(F)(F)F)ccc1=O` [Example 50, (S)-1-methyl-6-oxo-N-((4-(trifluoromethyl)phenyl)(3-(trifluoromethyl)pyridin-2-yl)methyl)-1,6-dihydropyridine-3-carboxamide], the IC50 came out at 10.5 nM. With `Cc1cccnc1[C@@H](NC(=O)c1ccc(=O)n(C)c1)c1ccc(C(F)(F)F)cc1` [Example 83, (S)-1-methyl-N-((3-methylpyridin-2-yl)(4-(trifluoromethyl)phenyl)methyl)-6-oxo-1,6-dihydropyridine-3-carboxamide 2,2,2-trifluoroacetate], the IC50 was found to be 39.2 nM.

`O=C(N[C@@H](c1ccc(C(F)(F)F)cc1)c1ncccc1F)c1ccc2nccnc2c1` [Example 170, (S)-N-((3-fluoropyridin-2-yl)(4-(trifluoromethyl)phenyl)methyl)quinoxaline-6-carboxamide]: the IC50 worked out at 23.5 nM. The same measure for `O=C(N[C@@H](c1ccc(C(F)(F)F)cc1)c1ncccc1Br)c1ccc2cccnc2c1` [Example 195, (S)—N-((3-bromopyridin-2-yl)(4-(trifluoromethyl)-phenyl)methyl)quinoline-7-carboxamide]: 50.6 nM; for `O=C(N[C@@H](c1ccc(C(F)(F)F)cc1)c1ncccc1C(F)(F)F)c1ccc2cc[nH]c2n1` [Example 67, (S)-N-((4-(trifluoromethyl)phenyl)(3-(trifluoromethyl)pyridin-2-yl)methyl)-1H-pyrrolo[2,3-b]pyridine-6-carboxamide]: 40 nM. The same measure for `COc1ccncc1C(=O)N[C@@H](c1ccc(C(F)(F)F)cc1)c1ncccc1C(F)(F)F` [Example 55, (S)-4-methoxy-N-((4-(trifluoromethyl)phenyl)(3-(trifluoromethyl)pyridin-2-yl)methyl)nicotinamide]: 30.4 nM. Take `O=C(N[C@@H](c1ccc(OC(F)(F)F)c(F)c1)c1ccccn1)c1ccc2[nH]c(=O)oc2c1` [Example 391, (S)-N-((3-fluoro-4-(trifluoromethoxy)phenyl)(pyridin-2-yl)methyl)-2-oxo-2,3-dihydrobenzo[d]oxazole-6-carboxamide]: the IC50 was 11.7 nM. Consider `O=C(O)COc1ccc(C(=O)N[C@@H](c2ccc(C(F)(F)F)cc2)c2ncccc2F)nc1` [Example 279, (S)-2-((6-(((3-Fluoropyridin-2-yl)(4-(trifluoromethyl)phenyl)-methyl)carbamoyl)pyridin-3-yl)oxy)acetic Acid], for which the IC50 came out at 1810 nM.

Turning to `O=C(N[C@@H](c1ccc(C(F)(F)F)cc1)c1ncccc1C(F)(F)F)c1cc(O)ccn1` [Example 62, (S)-4-hydroxy-N-((4-(trifluoromethyl)phenyl)(3-(trifluoromethyl)pyridin-2-yl)methyl)picolinamide], the IC50 is 172 nM. The same measure for `O=C(N[C@@H](c1ccc(C(F)(F)F)cc1)c1ncccc1C(F)(F)F)c1ccno1` [Example 220, (S)-N-((4-(trifluoromethyl)phenyl)(3-(trifluoromethyl)pyridin-2-yl)methyl)isoxazole-5-carboxamide]: 164 nM; for `N#Cc1ccccc1C(=O)N[C@@H](c1ccc(C(F)(F)F)cc1)c1ncccc1C(F)(F)F` [Example 197, (S)-2-cyano-N-((4-(trifluoromethyl)phenyl)(3-(trifluoromethyl)pyridin-2-yl)methyl)benzamide]: 115 nM; for `Cc1cncc(C(=O)N[C@@H](c2ccc(C(F)(F)F)cc2)c2ncccc2C(F)(F)F)c1` [Example 182, (S)-5-methyl-N-((4-(trifluoromethyl)phenyl)(3-(trifluoromethyl)pyridin-2-yl)methyl)nicotinamide 2,2,2-trifluoroacetate]: 41.8 nM. As to `O=C(O)c1cncc(C(=O)N[C@@H](c2ccc(C(F)(F)F)cc2)c2ncccc2C(F)(F)F)c1` [Example 226, (S)-5-(((4-(trifluoromethyl)phenyl)(3-(trifluoromethyl)pyridin-2-yl)methyl)carbamoyl)nicotinic acid], the IC50 was 2310 nM. With `O=C(NC(c1ccc(C(F)(F)F)cc1)c1ncccc1F)c1ccccc1` (centres unmarked) [Example 193, N-((3-fluoropyridin-2-yl)(4-(trifluoromethyl)phenyl)methyl)benzamide], the IC50 came to 34.8 nM. With `O=C1Cc2cc(C(=O)N[C@@H](c3ccc(C(F)(F)F)cc3)c3ncccc3C(F)(F)F)ccc2N1` [Example 56, (S)-2-oxo-N-((4-(trifluoromethyl)phenyl)(3-(trifluoromethyl)pyridin-2-yl)methyl)indoline-5-carboxamide], the half-inhibitory concentration (IC50) came out at 9.2 nM. On to `O=C(O)c1ccc(C(=O)N[C@@H](c2ccc(C(F)(F)F)cc2)c2ncccc2C(F)(F)F)cc1` [Example 283, (S)-4-(((4-(Trifluoromethyl)phenyl)(3-(trifluoromethyl)-pyridin-2-yl)methyl)carbamoyl)benzoic Acid], for which the IC50 came to 21.8 nM. The same measure for `CCn1cc(C(=O)N[C@@H](c2ccc(OC(F)(F)F)cc2)c2ncccc2F)ccc1=O` [Example 255, (S)-1-ethyl-N-((3-fluoropyridin-2-yl)(4-(trifluoromethoxy)phenyl)methyl)-6-oxo-1,6-dihydropyridine-3-carboxamide]: 17.6 nM.

On to `Cc1ccc(F)c([C@@H](NC(=O)c2ccc(=O)[nH]c2)c2ccc(C(F)(F)F)cc2)n1` [Example 410, (S)-N-((3-fluoro-6-methylpyridin-2-yl)(4-(trifluoromethyl)phenyl)methyl)-6-oxo-1,6-dihydropyridine-3-carboxamide], for which the IC50 came out at 71.8 nM. The same measure for `CC(=O)Oc1ccc(C(=O)N[C@@H](c2ccc(C(F)(F)F)cc2)c2ncccc2C(F)(F)F)cc1` [Example 174, (S)-4-(((4-(trifluoromethyl)phenyl)(3-trifluoromethyl)methyl)carbamoyl)phenyl acetate]: 22.9 nM; for `Cc1ccnc(C(NC(=O)c2ccc(=O)[nH]c2)c2ccc(OC(F)(F)F)c(F)c2)c1` (centres unmarked) [Example 423, N-((3-fluoro-4-(trifluoromethoxy)phenyl)(4-methylpyridin-2-yl)methyl)-6-oxo-1,6-dihydropyridine-3-carboxamide]: 137 nM; for `O=C1Cc2ccc(C(=O)N[C@@H](c3ccc(C(F)(F)F)cc3)c3ncccc3C(F)(F)F)cc2N1` [Example 69, (S)-2-oxo-N-((4-(trifluoromethyl)phenyl)(3-(trifluoromethyl)pyridin-2-yl)methyl)indoline-6-carboxamide]: 12.9 nM.

For the compound `CCn1cc(C(=O)N[C@@H](c2ccc(C(F)(F)F)cc2)c2ncccc2F)ccc1=O` [Example 364, (S)-1-ethyl-N-((3-fluoropyridin-2-yl)(4-(trifluoromethyl)phenyl)methyl)-6-oxo-1,6-dihydropyridine-3-carboxamide], the IC50 worked out at 15.8 nM. Regarding `O=C(N[C@@H](c1ccc(OC(F)(F)F)c(F)c1)c1ncccc1Br)c1ccc2oc(=O)[nH]c2c1` [Example 384, (S)-N-((3-bromopyridin-2-yl)(3-fluoro-4-(trifluoromethoxy)phenyl)methyl)-2-oxo-2,3-dihydrobenzo[d]oxazole-5-carboxamide], the IC50 was 5.8 nM. With `CC(C)n1cc(C(=O)N[C@@H](c2ccc(C(F)(F)F)cc2)c2ncccc2F)ccc1=O` [Example 367, (S)-N-((3-fluoropyridin-2-yl)(4-(trifluoromethyl)phenyl)methyl)-1-isopropyl-6-oxo-1,6-dihydropyridine-3-carboxamide] the figure was 68.3 nM.

For the compound `CC(=O)Oc1ccc(C(=O)N[C@@H](c2ccc(C(F)(F)F)cc2)c2ncccc2F)cc1N` [Example 431, (S)-2-Amino-4-(((3-fluoropyridin-2-yl)(4-(trifluoromethyl)phenyl)methyl)carbamoyl)phenyl Acetate], the IC50 was determined as 56.4 nM. The same measure for `O=C(N[C@@H](c1ccc(C(F)(F)F)cc1)c1ncccc1F)c1cccc(F)c1` [Example 187, (S)-3-fluoro-N-((3-fluoropyridin-2-yl)(4-(trifluoromethyl)phenyl)methyl)benzamide]: 45.3 nM. With `O=C(N[C@@H](c1ccc(C(F)(F)F)cc1)c1ncccc1F)c1ccc2nnnn2c1` [Example 307, (S)-N-((3-fluoropyridin-2-yl)(4-(trifluoromethyl)phenyl)methyl)tetrazolo[1,5-a]pyridine-6-carboxamide] the figure was 45.4 nM; with `O=C(N[C@@H](c1ccc(C(F)(F)F)cc1)c1ncccc1F)c1ccc2c(Cl)ccnc2c1` [Example 120, (S)-4-chloro-N-((3-fluoropyridin-2-yl)(4-(trifluoromethyl)phenyl)methyl)quinoline-7-carboxamide 2,2,2-trifluoroacetate], 59.4 nM.

Regarding `Cc1cc(C(=O)N[C@@H](c2ccc(C(F)(F)F)cc2)c2ncccc2C(F)(F)F)ccn1` [Example 39, (S)-2-methyl-N-((4-(trifluoromethyl)phenyl)(3-(trifluoromethyl)pyridin-2-yl)methyl)isonicotinamide], the IC50 turned out to be 17.8 nM.

As to `O=C(Cc1c[nH]cn1)N[C@@H](c1ccc(C(F)(F)F)cc1)c1ncccc1C(F)(F)F` [Example 158, (S)-2-(1H-imidazol-4-yl)-N-((4-(trifluoromethyl)phenyl)(3-(trifluoromethyl)pyridin-2-yl)methyl)acetamide], the IC50 worked out at 1950 nM. With `C=CCc1cccnc1[C@@H](NC(=O)[C@@H](C)c1ccccc1)c1ccc(C(F)(F)F)cc1` [Example 235, (S)-N-((S)-(3-allylpyridin-2-yl)(4-(trifluoromethyl)phenyl)methyl)-2-phenylpropanamide] the figure was 226 nM.

In the case of `O=C(N[C@@H](c1ccc(OC(F)(F)F)cc1)c1ncccc1F)c1ccn2nnnc2c1` [Example 310, (S)-N-((3-fluoropyridin-2-yl)(4-(trifluoromethoxy)phenyl)methyl)tetrazolo[1,5-a]pyridine-7-carboxamide], the IC50 worked out at 16 nM.
